From ChEMBL document CHEMBL5036333, “Cryptoyunnanones A-H, Complex Flavanones from Cryptocarya yunnanensis” (J Nat Prod, 2021)
Structures can show the parent of a compound that is named as a salt.

Tests used:
Assay type in all cases: functional, cell-based
HCT-116 = assay: Cytotoxicity against human HCT-116 cells assessed as cell growth inhibition measured after 48 hrs by MTT assay; settings: HCT-116, 48 h
A549 = assay: Cytotoxicity against human A549 cells assessed as cell growth inhibition measured after 48 hrs by MTT assay; settings: A549, 48 h
MDA-MB-231 = assay: Cytotoxicity against human MDA-MB-231 cells assessed as cell growth inhibition measured after 48 hrs by MTT assay; settings: MDA-MB-231, 48 h
PC-3 = assay: Cytotoxicity against human PC-3 cells assessed as cell growth inhibition measured after 48 hrs by MTT assay; settings: PC-3, 48 h

Question: Which results are given for `O=C1C=CC[C@H](C[C@@H]2C[C@@H]3C[C@@](/C=C/c4ccccc4)(Oc4cc(O)c5c(c43)O[C@@H](c3ccccc3)CC5=O)O2)O1`?
Answer: IC50 (HCT-116): 9 µM; IC50 (A549): > 10 µM; IC50 (MDA-MB-231): 9.1 µM; IC50 (PC-3): 7.6 µM

Question: With `O=C1C=CC[C@H](C[C@@H]2C[C@@H]3C[C@@](/C=C/c4ccccc4)(Oc4cc(O)c5c(c43)O[C@H](c3ccccc3)CC5=O)O2)O1` as the compound, how does the IC50 (HCT-116) read?
Answer: 8.1 µM

Question: And the IC50 (A549)?
Answer: > 10 µM

Question: And the IC50 (MDA-MB-231)?
Answer: 9.1 µM

Question: What about the IC50 (PC-3) of the same compound?
Answer: 7.8 µM

Question: Which results are given for `COc1cccc2c1C(=O)c1c(O)c3c(c(O)c1C2=O)C[C@@](O)(C(=O)CO)C[C@@H]3O[C@H]1C[C@H](N)[C@H](O)[C@H](C)O1` [DOXORUBICIN HYDROCHLORIDE]?
Answer: IC50 (MDA-MB-231): 0.2 µM; IC50 (PC-3): 0.2 µM

Question: For `O=C1C=CC[C@H](C[C@@H]2C[C@@H]3C[C@@](CCc4ccccc4)(Oc4cc(O)c5c(c43)O[C@H](c3ccccc3)CC5=O)O2)O1`, which IC50 (HCT-116) is on record?
Answer: 6.4 µM

Question: And the IC50 (A549)?
Answer: > 10 µM

Question: And the IC50 (MDA-MB-231)?
Answer: 8.6 µM

Question: What about the IC50 (PC-3) of the same compound?
Answer: 7.2 µM

Question: `O=C(O)CCC[C@@H]1C[C@@H]2C[C@@](/C=C/c3ccccc3)(Oc3cc(O)c4c(c32)O[C@@H](c2ccccc2)CC4=O)O1` was tested. Which IC50 (HCT-116) did it give?
Answer: > 10 µM

Question: And the IC50 (A549)?
Answer: > 10 µM

Question: What about the IC50 (MDA-MB-231) of the same compound?
Answer: > 10 µM

Question: And the IC50 (PC-3)?
Answer: > 10 µM

Question: Which results are given for `COC(=O)CCC[C@@H]1C[C@@H]2C[C@@](/C=C/c3ccccc3)(Oc3cc(O)c4c(c32)O[C@@H](c2ccccc2)CC4=O)O1`?
Answer: IC50 (HCT-116): > 10 µM; IC50 (A549): > 10 µM; IC50 (MDA-MB-231): > 10 µM; IC50 (PC-3): > 10 µM

Question: How did the IC50 (HCT-116) turn out when `COC(=O)CCC[C@@H]1C[C@@H]2C[C@@](/C=C/c3ccccc3)(Oc3cc(O)c4c(c32)O[C@H](c2ccccc2)CC4=O)O1` was run?
Answer: > 10 µM

Question: What about the IC50 (A549) of the same compound?
Answer: > 10 µM

Question: What about the IC50 (MDA-MB-231) of the same compound?
Answer: > 10 µM

Question: What about the IC50 (PC-3) of the same compound?
Answer: > 10 µM

Question: Which results are given for `O=C1C=CC[C@H](C[C@@H]2C[C@@H]3C[C@@](CCc4ccccc4)(Oc4cc(O)c5c(c43)O[C@@H](c3ccccc3)CC5=O)O2)O1`?
Answer: IC50 (HCT-116): 6.9 µM; IC50 (A549): > 10 µM; IC50 (MDA-MB-231): 8.5 µM; IC50 (PC-3): 7.2 µM

Question: Which IC50 (HCT-116) does the source give for `O=C(O)CCC[C@@H]1C[C@@H]2C[C@@](/C=C/c3ccccc3)(Oc3cc(O)c4c(c32)O[C@H](c2ccccc2)CC4=O)O1` here?
Answer: > 10 µM

Question: What about the IC50 (A549) of the same compound?
Answer: > 10 µM

Question: What about the IC50 (MDA-MB-231) of the same compound?
Answer: > 10 µM

Question: What about the IC50 (PC-3) of the same compound?
Answer: > 10 µM
